According to patent US10968269B1, “MHC multimers in borrelia diagnostics and disease” (Agilent Technologies, Inc., priority 2008, dated 2021):

Tests used:
[1] = tested on: Bcl-X(L)-specific, CD8 positive T cells; settings: PBL from a breast cancer patient, 106 PBL/well in doublets, compared to the absence of added peptide, FIG. 11; cited from earlier work
[2] = tested on: T2 cells loaded with Bcl-X(L)173-182 peptide; settings: different concentrations of peptide, E:T ratio 1:1, FIG. 14; cited from earlier work
[3] = target: HLA-A*0201-β2m-… peptide-complex (human); experiment: sandwich ELISA: W6/32 coated, MHC complex added, HRP rabbit anti-β2m detection; reference: free β2m

Row | Substance | ELISPOT detection of BclX(L) specific T-cells (number of spots, IFN-gamma producing T-cells) [1] | effect of the peptide on killing of pulsed T2 target cells by clone 9 [2] | OD450 ratio against the negative control β2m [3] [fold]
1 | YLNDHLEPWI (listed as Homo sapiens) | clearly shows the presence of BclX(L) specific T-cells | significant even at low concentrations | 
2 | W6/32 mouse-anti-HLA-ABC antibody (Dako M0736) |  |  | > 6
